Reference: patent US20260167622A1, “PAN-KRAS DEGRADING AGENT, AND PREPARATION METHOD THEREFOR AND USE THEREOF” (LEADINGTAC PHARMACEUTICAL (SHAOXING) CO., LTD., priority 2022, published 2026)

Key:
Type in all cases: cell-based
[1] = target: T1, KRAS G12V protein in SW620 cells (Homo sapiens, UniProt P01116, G12V); assay: KRAS degradation assay (Western Blot) in SW620 cells; conditions: for DC50: 24 h; for Dmax: SW-620, 24 h
T1 construct: endogenous in cells; host or cells: SW620
How it was run: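 5×10^5 cells/well; cpd 0.03–3000 nM final, 0.25% DMSO, 24 h, 37 °C/5% CO2. RIPA lysis, 5 µg protein/lane, anti-KRAS WB, β-actin loading ref. DC50/Dmax by nonlinear fit.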

[2] = target: T2, KRAS WT (expanded) protein in MKN1 cells (Homo sapiens, UniProt P01116); assay: KRAS degradation assay (Western Blot) in MKN1 cells; conditions: for DC50: 24 h; for Dmax: MKN-1, 24 h
T2 construct: endogenous in cells; host or cells: MKN1 (MKN-1)
Source text: (§1) Test Example 5: KRAS G12C, KRAS G12D, KRAS G12V, KRAS G13D, and KRAS WT (Expanded) Degradation Assays
(§2) The degradation effect of the compounds on KRAS was investigated on KRAS G12C mutant human non-small cell lung cancer cell NCI-H358, KRAS G12D mutant human metastatic pancreatic cancer cell AsPc-1, KRAS G12D mutant human lung cancer cell A427, KRAS G12V mutant human colorectal cancer cell SW620, KRAS G12V mutant human lung cancer cell SW900, KRAS G13D mutant human colorectal cancer epithelial cell DLD-1, and KRAS WT human gastric cancer cell MKN-1. The specific procedures were as follows: 0.95 mL of cells were seeded into each well of a 24-well cell culture plate to achieve a cell density of 5×10^5 cells/well; and the cell plate was incubated in an incubator at 37° C. with 5% CO2 overnight. Then 50 μL of the compound solution after dilution was added to each of the wells with the corresponding cells, so that the final concentration of the compound was in a range of 0.03-3000 nM. The final concentration of DMSO was 0.25%. After the compounds were added, the cell plate was incubated in an incubator at 37° C. with 5% CO2 for 24 h. The culture medium in the 24-well cell culture plate was then removed, and the plate was washed twice with 1×PBS (KeyGEN). 120 μL of RIPA (strong) lysis buffer (Beyotime) (supplemented with 1 mM phenylmethylsulfonyl fluoride, a protease inhibitor mixture (Beyotime), and a protease phosphatase inhibitor mixture (Beyotime)) was added to lyse adherent SW900 cells at the bottom of the cell culture plate. After the plate was left to stand on ice for 30 min, the protein lysate in each well was transferred to a 1.5 mL centrifuge tube and centrifuged at 15000 g for 20 min at 4° C. The cell lysate supernatants after centrifugation were cryopreserved in a refrigerator at −80° C. for later use.
(§3) After the samples of the cell lysate supernatants that had been prepared were thawed from the refrigerator at −80° C., the total protein concentrations of the cell lysates were determined using a BCA protein quantification kit (Tiangen). The total protein concentrations of the samples were then adjusted to 0.5 μg/μL with PBS and 5×SDS-PAGE protein loading buffer (Beyotime), and the samples were incubated in a water bath at 100° C. for 15 min. The samples were then incubated in an ice bath for 5 min and centrifuged at 14000 g for 1 min at 4° C., and the supernatants were mixed well as loading samples for the Western Blot assay. The samples were loaded into wells of a 10% precast gel (KeyGEN) with a loading volume of 10 μL (total protein: 5 μg), a sufficient Tris-MOPS-SDS running buffer (Adamas) was added, and then electrophoresis was performed at a constant voltage of 120 V for 55 min. After the electrophoresis, the proteins on the gel were transferred to PVDF membranes at a constant current of 250 mA for 55 min. After the membrane transfer, the PVDF membranes were incubated in 1× Quick Block blocking buffer (Beyotime)at room temperature for 30 min. After the blocking, the PVDF membranes were separately incubated at 4° C. overnight with the KRAS antibody (Abcam) diluted in a ratio of 1:1000 and the β-actin antibody (Abcam) diluted in a ratio of 1:2000 in 5% BSA as the diluent, and then washed with 1×TBST buffer (2.4 g of Tris, 8.8 g of NaCl, 1.5 mL of Tween 20, with pH adjusted to 7.4, with the volume brought to 1 L) 3 times for 10 min/time. The membranes were incubated with a secondary antibody (Abcam) diluted in 5% BSA at room temperature for 2 h, and then washed with 1×TBST buffer 3 times for 10 min/time. Finally, the membranes were incubated with Clarity Western ECL Substrate (BIO-RAD) for 5 min for luminescence and color development, and a ChemiScope 6200 Touch chemiluminescence imaging system (Clinx) was used for color development and protein mapping. Gray value analysis of the protein maps was performed using the chemiluminescence analysis software (Clinx). […]

[3] = target: T3, KRAS G12C protein in NCI-H358 cells (Homo sapiens, UniProt P01116, G12C); assay: KRAS degradation assay (Western Blot) in NCI-H358 cells; conditions: 24 h
T3 construct: endogenous in cells; host or cells: NCI-H358
Source text: as §1, §2, §3

[4] = target: T4, KRAS G13D protein in DLD-1 cells (Homo sapiens, UniProt P01116, G13D); assay: KRAS degradation assay (Western Blot) in DLD-1 cells; conditions: 24 h
T4 construct: endogenous in cells; host or cells: DLD-1
How it was run: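 AsPc-1, A427, DLD-1 and SW900 cells (5×10^5/well) were treated 24 h at 37 °C with compound at 0.03-3000 nM final (0.25% DMSO). KRAS in lysates was detected by Western blot (5 μg protein, ECL), normalized to β-actin and compared with control to derive DC50 and Dmax.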

[5] = target: T5, KRAS G12D protein in AsPc-1 cells (Homo sapiens, UniProt P01116, G12D); assay: KRAS degradation assay (Western Blot) in AsPc-1 cells; conditions: for DC50: 24 h; for Dmax: ASPC1, 24 h
T5 construct: endogenous in cells; host or cells: AsPc-1
Source text: as §1, §2, §3

[6] = system: KRAS G12D mutant human metastatic pancreatic cancer cell AsPc-1; assay: 3D cell proliferation inhibition assay, AsPc-1; conditions: ASPC1, 168 h, 3D culture, 7 days, CTG
How it was run: (§4)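 Cells seeded in low-adsorption plates at 5×10^2 cells/well (MKN1 1×10^3) with compounds at final 10000–0.026 nM, 0.2% DMSO, 3D culture 7 days at 37 °C. Viability by CellTiter-Glo luminescence; inhibition normalised to DMSO and medium-only controls, IC50 from nonlinear log-concentration fit.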

[7] = system: KRAS G12C mutant human non-small cell lung cancer cell NCI-H358; assay: 3D cell proliferation inhibition assay, NCI-H358; conditions: NCI-H358, 168 h, 3D culture, 7 days, CTG
How it was run: as §4

[8] = system: KRAS G12V mutant human colorectal cancer cell SW620; assay: 3D cell proliferation inhibition assay, SW620; conditions: SW-620, 168 h, 3D culture, 7 days, CTG
How it was run: as §4

[9] = system: KRAS G13D mutant human colorectal cancer epithelial cell DLD-1; assay: 3D cell proliferation inhibition assay, DLD-1; conditions: DLD-1, 168 h, 3D culture, 7 days, CTG
How it was run: as §4

[10] = system: KRAS WT human gastric cancer cell MKN1; assay: 3D cell proliferation inhibition assay, MKN1; conditions: MKN-1, 168 h, 3D culture, 7 days, CTG
How it was run: as §4

T1 sequence (P01116 1-188 isoform P01116-2 G12V): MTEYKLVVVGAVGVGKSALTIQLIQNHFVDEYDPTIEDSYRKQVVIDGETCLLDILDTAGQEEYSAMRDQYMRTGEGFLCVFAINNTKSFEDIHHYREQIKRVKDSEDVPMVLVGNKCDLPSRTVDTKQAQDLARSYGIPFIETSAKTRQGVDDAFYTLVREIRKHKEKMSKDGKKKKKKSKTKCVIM
T3 sequence (P01116 1-188 isoform P01116-2 G12C): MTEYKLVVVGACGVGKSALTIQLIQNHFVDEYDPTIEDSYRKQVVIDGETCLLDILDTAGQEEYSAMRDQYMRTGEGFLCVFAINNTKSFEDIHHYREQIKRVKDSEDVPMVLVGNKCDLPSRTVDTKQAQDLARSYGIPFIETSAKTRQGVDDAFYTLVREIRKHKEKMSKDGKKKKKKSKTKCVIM
T2 sequence (P01116 1-188 isoform P01116-2): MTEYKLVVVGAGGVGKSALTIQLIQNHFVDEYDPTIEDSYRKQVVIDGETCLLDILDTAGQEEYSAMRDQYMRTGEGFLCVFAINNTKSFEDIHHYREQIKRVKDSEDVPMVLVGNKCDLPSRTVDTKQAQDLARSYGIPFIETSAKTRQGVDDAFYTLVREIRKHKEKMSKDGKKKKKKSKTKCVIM
T4 sequence (P01116 1-188 isoform P01116-2 G13D): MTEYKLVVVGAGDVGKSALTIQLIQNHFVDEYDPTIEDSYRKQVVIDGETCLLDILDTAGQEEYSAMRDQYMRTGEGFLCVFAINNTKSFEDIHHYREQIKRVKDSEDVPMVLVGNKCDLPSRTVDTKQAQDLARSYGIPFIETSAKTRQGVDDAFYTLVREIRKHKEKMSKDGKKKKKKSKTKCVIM
T5 sequence (P01116 1-188 isoform P01116-2 G12D): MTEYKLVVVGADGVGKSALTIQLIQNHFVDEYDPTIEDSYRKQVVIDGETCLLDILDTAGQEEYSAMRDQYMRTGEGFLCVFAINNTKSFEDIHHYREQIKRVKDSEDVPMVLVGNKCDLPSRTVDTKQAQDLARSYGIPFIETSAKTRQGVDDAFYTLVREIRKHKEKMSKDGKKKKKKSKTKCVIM

DC50 [1] [nM] | Dmax [1] [%] | DC50 [2] [nM] | Dmax [2] [%] | DC50 [3] [nM] | Dmax [3] [%] | DC50 [4] [nM] | Dmax [4] [%] | DC50 [5] [nM] | Dmax [5] [%] | IC50 [6] [nM] | IC50 [7] [nM] | IC50 [8] [nM] | IC50 [9] [nM] | IC50 [10] [nM] | Compound
0.99 | 100 | 0.28 | 97.4 | 1.7 | 88.9 | 2.05 | 100 | 18.7 | 93.3 | 6.48 | 2.33 | 1.92 | 3.55 | 2.33 | C#Cc1c(F)ccc2cc(O)cc(-c3ncc4c(N5CCC[C@@](C)(O)C5)nc(OC[C@H](C)CN5CCN(CC6CCC7(CC6)CCN(C(=O)c6ccc(C)c(N8CCC(=O)NC8=O)c6)CC7)CC5)nc4c3F)c12 [Example 47, 1-(5-(9-((4-((R)-3-((7-(8-ethynyl-7-fluoro-3-hydroxynaphthalen-1-yl)-8-fluoro-4-((R)-3-hydroxy-3-methylpiperidin-1-yl)pyrido[4,3-d]pyrimidin-2-yl)oxy)-2-methylpropyl)piperazin-1-yl)methyl)-3-azaspiro[5.5]undecane-3-carbonyl)-2-methylphenyl)dihydropyrimidine-2,4(1H,3H)-dione]
5.16 | 100 | 1.15 | 98.9 | 6.04 | 92.7 | 8.8 | 100 | – | – | 4.26 | 2.13 | 1.92 | 8.33 | 5.41 | C#Cc1c(F)ccc2cc(O)cc(-c3ncc4c(N5CCC[C@@](C)(O)C5)nc(OCC5(CN6CCN(CC7CCC8(CC7)CCN(C(=O)c7cc(N9CCC(=O)NC9=O)c(C)cc7F)CC8)CC6)CC5)nc4c3F)c12 [Example 91, (R)-1-(5-(9-((4-((1-(((7-(8-ethynyl-7-fluoro-3-hydroxynaphthalen-1-yl)-8-fluoro-4-(3-hydroxy-3-methylpiperidin-1-yl)pyrido[4,3-d]pyrimidin-2-yl)oxy)methyl)cyclopropyl)methyl)piperazin-1-yl)methyl)-3-azaspiro[5.5]undecane-3-carbonyl)-4-fluoro-2-methylphenyl)dihydropyrimidine-2,4(1H,3H)-dione]
7.48 | 99.5 | 1.25 | 99.5 | 1.11 | 98.2 | 4.39 | 100 | 5.91 | 99.6 | 12.1 | 4.66 | 3.76 | 3.9 | 22.6 | [2H]C([2H])([2H])Oc1ccc(C(=O)N2CCC3(CCC(CN4CCN(C[C@@H](C)COc5nc(N6CCC[C@@](C)(O)C6)c6cnc(-c7cc(O)cc8ccc(F)c(C#C)c78)c(F)c6n5)CC4)CC3)CC2)cc1N1CCC(=O)NC1=O [Example 164, 1-(5-(9-((4-((R)-3-((7-(8-ethynyl-7-fluoro-3-hydroxynaphthalen-1-yl)-8-fluoro-4-((R)-3-hydroxy-3-methylpiperidin-1-yl)pyrido[4,3-d]pyrimidin-2-yl)oxy)-2-methylpropyl)piperazin-1-yl)methyl)-3-azaspiro[5.5]undecane-3-carbonyl)-2-(methoxy-d3)phenyl)dihydropyrimidine-2,4(1H,3H)-dione]
2.35 | 97.7 | 0.76 | 99.3 | 2.65 | 96.1 | 1.96 | 99.9 | 5.53 | 100 | 6.31 | 2.49 | 2.59 | 6.28 | 6.7 | [2H]C([2H])([2H])Oc1ccc(C(=O)N2CCC3(CCC(CN4CCN(CC5(COc6nc(N7CCC[C@@](C)(O)C7)c7cnc(-c8cc(O)cc9ccc(F)c(C#C)c89)c(F)c7n6)CC5)CC4)CC3)CC2)cc1N1CCC(=O)NC1=O [Example 170, (R)-1-(5-(9-((4-((1-(((7-(8-ethynyl-7-fluoro-3-hydroxynaphthalen-1-yl)-8-fluoro-4-(3-hydroxy-3-methylpiperidin-1-yl)pyrido[4,3-d]pyrimidin-2-yl)oxy)methyl)cyclopropyl)methyl)piperazin-1-yl)methyl)-3-azaspiro[5.5]undecane-3-carbonyl)-2-(methoxy-d3)phenyl)dihydropyrimidine-2,4(1H,3H)-dione]
